Patent publication US8754222B2, “Process for preparing modulators of cystic fibrosis transmembrane conductance regulator” (Vertex Pharmaceuticals Incorporated, priority 2009, dated 2014)

Biological target: T1, ΔF508-CFTR (Homo sapiens, UniProt P13569, DEL508-508)
T1 construct: expressed in transfected cells; host or cells: NIH3T3 mouse fibroblasts, stably expressing, temperature-corrected at 27 °C
Assay: Membrane potential optical assay, identification of potentiator compounds
Type: cell-based
Settings: assay not specified; ΔF508-CFTR potentiation, NIH 3T3 cells
Source text: Membrane Potential Optical Methods for Assaying ΔF508-CFTR Modulation Properties of Compounds
The assay utilizes fluorescent voltage sensing dyes to measure changes in membrane potential using a fluorescent plate reader (e.g., FLIPR III, Molecular Devices, Inc.) as a readout for increase in functional ΔF508-CFTR in NIH 3T3 cells. The driving force for the response is the creation of a chloride ion gradient in conjunction with channel activation by a single liquid addition step after the cells have previously been treated with compounds and subsequently loaded with a voltage sensing dye.
Identification of Potentiator Compounds
To identify potentiators of ΔF508-CFTR, a double-addition HTS assay format was developed. This HTS assay utilizes fluorescent voltage sensing dyes to measure changes in membrane potential on the FLIPR III as a measurement for increase in gating (conductance) of ΔF508 CFTR in temperature-corrected ΔF508 CFTR NIH 3T3 cells. The driving force for the response is a ion gradient in conjunction with channel activation with forskolin in a single liquid addition step using a fluorescent plate reader such as FLIPR III after the cells have previously been treated with potentiator compounds (or DMSO vehicle control) and subsequently loaded with a redistribution dye.
Bath Solution #1: (in mM) NaCl 160, KCl 4.5, CaCl2 2, MgCl2 1, HEPES 10, pH 7.4 with NaOH. […]

T1 sequence (P13569 with tags, fused parts or gaps DEL508-508): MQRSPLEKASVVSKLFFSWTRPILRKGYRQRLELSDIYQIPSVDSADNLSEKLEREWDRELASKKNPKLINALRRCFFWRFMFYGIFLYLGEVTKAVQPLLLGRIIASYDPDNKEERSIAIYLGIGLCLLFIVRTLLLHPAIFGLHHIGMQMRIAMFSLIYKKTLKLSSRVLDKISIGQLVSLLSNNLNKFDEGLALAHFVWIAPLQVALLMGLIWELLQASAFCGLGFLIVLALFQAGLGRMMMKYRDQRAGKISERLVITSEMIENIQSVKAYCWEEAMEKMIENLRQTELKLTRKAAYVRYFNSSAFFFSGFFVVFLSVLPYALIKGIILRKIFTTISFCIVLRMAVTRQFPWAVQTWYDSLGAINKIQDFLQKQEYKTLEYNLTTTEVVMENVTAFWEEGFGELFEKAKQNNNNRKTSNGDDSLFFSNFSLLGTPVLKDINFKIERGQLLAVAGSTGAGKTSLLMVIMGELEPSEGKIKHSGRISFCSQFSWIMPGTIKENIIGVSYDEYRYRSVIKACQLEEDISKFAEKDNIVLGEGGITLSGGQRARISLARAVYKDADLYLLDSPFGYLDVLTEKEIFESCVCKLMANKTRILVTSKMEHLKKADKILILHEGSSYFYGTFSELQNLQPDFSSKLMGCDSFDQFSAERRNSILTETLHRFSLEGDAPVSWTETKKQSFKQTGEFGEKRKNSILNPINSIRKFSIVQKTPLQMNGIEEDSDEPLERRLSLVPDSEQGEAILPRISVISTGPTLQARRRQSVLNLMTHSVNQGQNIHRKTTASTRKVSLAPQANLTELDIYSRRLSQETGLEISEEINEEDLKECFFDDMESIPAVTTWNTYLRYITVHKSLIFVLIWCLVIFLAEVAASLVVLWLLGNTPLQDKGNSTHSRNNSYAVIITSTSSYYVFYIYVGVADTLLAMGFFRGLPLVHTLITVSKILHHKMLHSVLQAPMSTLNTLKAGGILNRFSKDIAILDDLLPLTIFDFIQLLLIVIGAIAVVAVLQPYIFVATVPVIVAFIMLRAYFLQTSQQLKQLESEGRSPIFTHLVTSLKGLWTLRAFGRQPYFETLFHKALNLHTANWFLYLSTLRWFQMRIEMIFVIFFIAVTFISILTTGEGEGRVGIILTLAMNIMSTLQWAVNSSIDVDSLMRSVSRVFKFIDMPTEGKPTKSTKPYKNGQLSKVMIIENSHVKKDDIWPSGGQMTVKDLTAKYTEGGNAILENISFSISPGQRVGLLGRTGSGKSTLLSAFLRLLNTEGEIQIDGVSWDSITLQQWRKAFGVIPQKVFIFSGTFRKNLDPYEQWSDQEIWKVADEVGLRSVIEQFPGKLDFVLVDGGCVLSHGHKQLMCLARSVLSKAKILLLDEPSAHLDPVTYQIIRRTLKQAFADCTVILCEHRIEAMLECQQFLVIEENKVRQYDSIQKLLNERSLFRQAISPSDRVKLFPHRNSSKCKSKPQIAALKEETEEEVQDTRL

**Q.** `O=C(Nc1ccc(N2C3CCC2CC3)cc1C(F)(F)F)c1c[nH]c2cccc(C(F)(F)F)c2c1=O` [Compound 1 Form A, N-(4-(7-azabicyclo[2.2.1]heptan-7-yl)-2-(trifluoromethyl)phenyl)-4-oxo-5-(trifluoromethyl)-1,4-dihydroquinoline-3-carboxamide] was tested. Which EC50 did it give?
**A.** Its EC50 is < 2 µM.
